Results as given in PubChem BioAssay AID192 (DTP/NCI, 2004).
Several values for one entry are separate records, joined by “and”; a condition that tells them apart may be missing. Equal entries are not always repeated. Inconclusive results and toxic doses are left out.

Tested on: BDF1 mice, B16 melanoma ip, median survival T/C
Assay: NCI In Vivo Anticancer Drug Screen. Data for tumor model B16 Melanoma (intraperitoneal) in B6D2F1 (BDF1) mice
Settings: endpoint: median survival time, higher = longer survival
Experimental: The antitumor activity of compounds was measured in mice bearing transplantable tumors. Survival or tumor size were measured and the results are expressed as the measurement made in the treated group (T) divided by the measurement made in the vehicle treated control group (C). The tumor model used in this assay is B16 Melanoma (intraperitoneal) in B6D2F1 (BDF1) mice

[1] = dose: 12.5 mg/kg/injection, schedule: Q01DX009 (ip), vehicle: Klucel (hydroxypropylcellulose) (HPC)
[2] = dose: 50.0 mg/kg/injection, schedule: Q01DX009 (ip), vehicle: Klucel (hydroxypropylcellulose) (HPC)
[3] = dose: 100.0 mg/kg/injection, schedule: Q01DX009 (ip), vehicle: Klucel (hydroxypropylcellulose) (HPC)
[4] = dose: 200.0 mg/kg/injection, schedule: Q01DX009 (ip), vehicle: Klucel (hydroxypropylcellulose) (HPC)
[5] = dose: 3.13 mg/kg/injection, schedule: Q01DX009 (ip), vehicle: saline with Tween-80
[6] = dose: 6.25 mg/kg/injection, schedule: Q01DX009 (ip), vehicle: saline with Tween-80
[7] = dose: 25.0 mg/kg/injection, schedule: Q01DX009 (ip), vehicle: saline with Tween-80
[8] = dose: 50.0 mg/kg/injection, schedule: Q01DX009 (ip), vehicle: saline with Tween-80

Cc1cc(C)c(-c2cc(O)c(C)cc2O)c(C)c1
T/C [1]: 95 % of control | T/C (dose: 25.0 mg/kg/injection, schedule: Q01DX009 (ip), vehicle: Klucel (hydroxypropylcellulose) (HPC)): 97 % of control | T/C [2]: 97 % of control | T/C [3]: 93 % of control | T/C [4]: 90 % of control

C=CCOCC(O)CN1CCC(C)CC1 (configuration not stated)
T/C (dose: 25.0 mg/kg/injection, schedule: Q04DX003 (ip), vehicle: Klucel (hydroxypropylcellulose) (HPC)): 88 % of control | T/C (dose: 50.0 mg/kg/injection, schedule: Q04DX003 (ip), vehicle: Klucel (hydroxypropylcellulose) (HPC)): 101 % of control | T/C (dose: 100.0 mg/kg/injection, schedule: Q04DX003 (ip), vehicle: Klucel (hydroxypropylcellulose) (HPC)): 107 % of control

Cc1cnc(/C=N\NC(N)=S)c2cccc(N)c12
T/C (dose: 3.12 mg/kg/injection, schedule: Q01DX009 (ip), vehicle: saline with Tween-80): 100 % of control | T/C (dose: 3.13 mg/kg/injection, schedule: Q01DX009 (ip), vehicle: Klucel (hydroxypropylcellulose) (HPC)): 102 % of control | T/C [5]: 114 % of control | T/C (dose: 6.25 mg/kg/injection, schedule: Q01DX009 (ip), vehicle: Klucel (hydroxypropylcellulose) (HPC)): 114 % of control | T/C [6]: 103 % of control and 124 % of control | T/C [1]: 115 % of control

C[C@]12CC[C@H]3[C@@H](CCC4=CC(=O)CC[C@@]43C)[C@@H]1CC[C@@H]2OC(=O)Cc1ccc(N(CCCl)CCCl)cc1
T/C (dose: 64.0 mg/kg/injection, schedule: Q02DX009 (ip), vehicle: Klucel (hydroxypropylcellulose) (HPC)): 100 % of control and 111 % of control | T/C (dose: 128.0 mg/kg/injection, schedule: Q02DX009 (ip), vehicle: Klucel (hydroxypropylcellulose) (HPC)): 95 % of control and 115 % of control | T/C (dose: 256.0 mg/kg/injection, schedule: Q02DX009 (ip), vehicle: Klucel (hydroxypropylcellulose) (HPC)): 122 % of control

O=C(NC(CS)C(=O)O)OCc1ccccc1 (configuration not stated)
T/C [2]: 94 % of control | T/C [3]: 94 % of control

CCN(CC)CCNc1ccc(N=Nc2cnc3ccccc3c2)c2ccccc12
T/C [7]: 90 % of control | T/C [8]: 94 % of control

COC(=O)C1=C(C)NC(=O)NC1c1ccc(N(CCCl)CCCl)c(OC)c1 (configuration not stated)
T/C (dose: 1.56 mg/kg/injection, schedule: Q01DX009 (ip), vehicle: Klucel (hydroxypropylcellulose) (HPC)): 154 % of control | T/C (dose: 3.12 mg/kg/injection, schedule: Q01DX009 (ip), vehicle: Klucel (hydroxypropylcellulose) (HPC)): 178 % of control | T/C [5]: 176 % of control | T/C [6]: 189 % of control

C1COC(NC2CC3CCC2C3)=N1 (configuration not stated)
T/C [6]: 107 % of control | T/C (dose: 12.5 mg/kg/injection, schedule: Q01DX009 (ip), vehicle: saline with Tween-80): 100 % of control | T/C [7]: 100 % of control

CCN(CC)CCOC(=O)Cc1ccccc1
T/C [3]: 106 % of control | T/C [4]: 103 % of control | T/C (dose: 400.0 mg/kg/injection, schedule: Q01DX009 (ip), vehicle: Klucel (hydroxypropylcellulose) (HPC)): 103 % of control

COc1ccc(Cl)cc1NC(=O)Nc1ccc(Cl)c(Cl)c1
T/C (dose: 18.75 mg/kg/injection, schedule: Q01DX009 (ip), vehicle: Klucel (hydroxypropylcellulose) (HPC)): 96 % of control | T/C (dose: 37.5 mg/kg/injection, schedule: Q01DX009 (ip), vehicle: Klucel (hydroxypropylcellulose) (HPC)): 95 % of control | T/C (dose: 75.0 mg/kg/injection, schedule: Q01DX009 (ip), vehicle: Klucel (hydroxypropylcellulose) (HPC)): 90 % of control

CC(N)CCC(C)(C)O (configuration not stated)
T/C [7]: 102 % of control | T/C [8]: 105 % of control | T/C (dose: 100.0 mg/kg/injection, schedule: Q01DX009 (ip), vehicle: saline with Tween-80): 107 % of control
